Target: TNFα (Homo sapiens (Human), UniProt P01375)
Assay: TNF induced HEK-Blue assay
Assay type: cell-based
Conditions: TNFα 0.5 ng/ml; HEK-Blue-CD40L cells, NF-κB-driven secreted alkaline phosphatase reporter; 18 h

Sequence of TNFα (P01375 77-233): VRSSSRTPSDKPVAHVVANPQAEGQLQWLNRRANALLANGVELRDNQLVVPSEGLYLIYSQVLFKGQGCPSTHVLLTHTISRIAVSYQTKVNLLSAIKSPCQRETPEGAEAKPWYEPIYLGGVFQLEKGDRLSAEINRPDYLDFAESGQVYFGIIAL

Row | IC50 [nM] | Substance
1 | 1000 to 10000 | (+/−)-cis-9-(2-(difluoromethoxy)phenyl)-2-(4-(2-hydroxybutan-2-yl)phenyl)-6,7,8,9-tetrahydropyrido[4′,3′:4,5]imidazo[1,2-b]pyridazin-6-ol [Example 50]
2 | 1000 to 10000 | (+/−)-cis-9-(2-(difluoromethoxy)phenyl)-2-(4-(3-hydroxypentan-3-yl)phenyl)-6,7,8,9-tetrahydropyrido[4′,3′:4,5]imidazo[1,2-b]pyridazin-6-ol [Example 49]
3 | 1000 to 10000 | (+/−)-cis-9-(2-(difluoromethoxy)phenyl)-2-(4-morpholinophenyl)-6,7,8,9-tetrahydropyrido[4′,3′:4,5]imidazo[1,2-b]pyridazin-6-ol [Example 45]
4 | 1000 to 10000 | (+/−)-cis-9-(4-fluoro-2-methylphenyl)-2-(4-(2-hydroxypropan-2-yl)phenyl)-6,7,8,9-tetrahydropyrido [4′,3′:4,5]imidazo[1,2-b]pyridazin-6-ol [Example 43]
5 | 1000 to 10000 | (+/−)-trans-9-(2-(difluoromethoxy)phenyl)-2-(4-(2-hydroxy-2-methylpropoxy)phenyl)-6,7,8,9-tetrahydropyrido[4′,3′:4,5]imidazo[1,2-b]pyridazin-6-ol [Example 52]
6 | < 1000 | (+/−)-trans-9-(4-fluoro-2-methylphenyl)-2-(4-(2-hydroxypropan-2-yl)phenyl)-6,7,8,9-tetrahydropyrido[4′,3′:4,5]imidazo[1,2-b]pyridazin-6-ol [Example 44]

Row | Substance | IC50 [nM]
7 | (+/−)-trans-9-(2,5-dimethylphenyl)-2-(4-(2-hydroxypropan-2-yl)phenyl)-6,7,8,9-tetrahydropyrido[4′,3′:4,5]imidazo[1,2-b]pyridazin-6-ol [Example 53] | 1000 to 10000

From patent US10308652B2, “Tricyclic heterocyclic compounds useful as inhibitors of TNF” (BRISTOL-MYERS SQUIBB COMPANY, priority 2015, dated 2019)
